From patent US10329262B2, “Quinazolinone antibiotics” (priority 2013, dated 2019)
Read-outs that look alike come from different tables or passages of the source.

What was measured:
S. aureus NRS123 = experiment: MIC, broth microdilution, S. aureus NRS123; format: cell-based; conditions: Staphylococcus aureus
Method: (§1) MICs were evaluated following the CLSI microdilution method in BBL™ Mueller-Hinton II broth (Wikler et al., Clinical Laboratory Standards Institute Document M7-A7, 29 (2009)). Briefly, two-fold serial dilutions of compound were prepared in triplicate in 96-well plates and inoculated with 5×10^5 cfu/mL of the bacterial suspension. Plates were incubated at 37° C. for 16-20 hours.

red blood cells = experiment: Hemolysis; format: cell-based, human; conditions: at 50 μg/mL
Method: Fresh heparinized human blood was washed three times by centrifugation at 1,200 g for 10 min in 100 mM PBS, pH 7.4. A 10% red-blood cell (RBC) suspension was prepared in PBS. Antibiotic 2 at 0.5, 5, and 50 μg/mL was added to aliquots of the 10% RBC suspension and incubated at 37° C. A positive control of 0.2% Triton was used. Samples were centrifuged at 1,200 g for 10 min and the supernatant measured for absorbance at 541 nm.

[1] = Plasma protein binding, rapid equilibrium dialysis, human; format: in vitro ADME; conditions: humans, 10 μM, 6 h dialysis
Method: Aliquots from both chambers were quenched with 1:2 v/v acetonitrile containing an internal standard. The samples were concentrated to dryness on a miVac concentrator and the residue resuspended in 50:50 acetonitrile/water. Samples were analyzed by reverse-phase ultraperformance liquid chromatography (UPLC) with UV/Vis detection. Plasma protein binding of quinazolinone 2 was 98.0±0.04% in mice and 96.5±0.70% in humans.

S. aureus NRS128 = experiment: MIC, CLSI broth microdilution, S. aureus NRS128; format: cell-based, Staphylococcus aureus; conditions: Table 2.1, S. aureus NRS128
Method: as §1

T7 transcription = experiment: In vitro transcription assay (TranscriptAid T7 kit); format: biochemical
Description: For in vitro translation, the E. coli S30 Extract System for Circular DNA was used to set up the reactions using plasmid pCP19 containing the lacZ gene for β-galactosidase. Reaction mixtures were supplemented with two-fold dilutions of antibiotic 2 and the β-Galactosidase Enzyme Assay System with Reporter Lysis Buffer was used to quantify the amount of β-galactosidase translated by measuring absorbance at 420 nm. For in vitro transcription, a TranscriptAid T7 High Yield Transcription kit was used with a pET24a/dacB DNA construct under the T7 promoter. The purified plasmid was linearized using the restriction endonuclease XhoI and then purified according to the manufacturer's instructions. A series of samples were prepared and supplemented with two-fold dilutions of antibiotic 2. Samples were analyzed by running on a denaturing 1% formaldehyde agarose gel and stained with ethidium bromide to visualize RNA. Intensities of the bands were quantified and compared to the control to determine the amount of transcription occurring in the presence of 2.

Plasma stability = format: in vitro ADME; conditions: mouse, 37° C.
Method: Compound 2 (20 μM) was incubated in blank mouse plasma at 37° C. and aliquots were taken at specific time points and quenched with two volumes of acetonitrile containing internal standard. Samples were centrifuged and analyzed by reverse-phase UPLC.

PBP1 = target: T1, PBP1 (Staphylococcus aureus, UniProt Q53725); experiment: Bocillin FL competition assay, S. aureus membrane preparation; format: binding
T1 construct: Fluorescence labeling of S. aureus membrane preparation (150 μg) by Bocillin FL (30 μM); endogenous in cells; host or cells: S. aureus ATCC 29213 membrane preparation
Method: S. aureus (ATCC 29213), a methicillin-sensitive strain, was grown in Difco Luria-Bertani (LB) broth at 37° C. until an OD625˜0.8. Cells were centrifuged at 3,200 g for 30 min at 4° C. and washed once with cold 100 mM NaH2PO4, 50 mM NaHCO3, pH 7.5, buffer. The cells were resuspended in 10 mL cold buffer containing complete EDTA-free protease inhibitor, 200 μg/mL lysostaphin, 15 μg/mL DNase I, 10 mM MgCl2, and 1 mM EDTA and incubated for 30 min at 37° C. Cells were sonicated using a Branson Sonifer for 5×1 min cycles, with 2 min of rest in between each cycle, and the lysate was centrifuged at 3,200 g for 20 min at 4° C. The supernatant was then ultracentrifuged at 32,000 rpm for 1 h at 4° C. and the pellet was washed once with cold buffer. The resulting membrane was resuspended in buffer, quantified using the BCA Protein Assay Kit, and the concentration was adjusted to 9 mg/mL.
The Bocillin FL competition assays were performed with purified PBP2a and membrane extracts. PBP2a was purified using a previously described protocol (Fuda et al., J. Biol. Chem. 279, 40802-40806 (2004)). […] Samples were centrifuged, loaded to SDS-PAGE, the gels were visualized immediately using a Storm840 Scanner, and fluorescence was quantified using ImageQuant software. IC50 values were calculated using GraphPad prism 5, using the previously published equation.

S. aureus (ATCC 29213) = experiment: Macromolecular synthesis assays; format: cell-based, Staphylococcus aureus
Description: Mechanism of Action of the Quinazolinones. The mode of action of 2 was investigated by macromolecular synthesis assays in S. aureus in the logarithmic phase, which monitor incorporation of radiolabeled precursors [methyl-^3H]-thymidine, [5-^3H]-uridine, L-[4,5-^3H]-leucine, or D-[2,3-^3H]-alanine into DNA, RNA, protein, or cell wall (peptidoglycan), respectively. Inhibition of radiolabeled precursor incorporation by 2 at a concentration of half the MIC was compared with those of known inhibitors of each pathway (ciprofloxacin, rifampicin, tetracycline, and fosfomycin, respectively).
The mode of action of 2 was investigated by macromolecular synthesis assays in S. aureus in the logarithmic phase (Miller, A A et al. Antimicrob. Agents Chemother. 52, 2806-12 (2008)), which monitor incorporation of radiolabeled precursors [methyl-^3H]-thymidine, [5-^3H]-uridine, L-[4,5-^3H]-leucine, or D-[2,3-^3H]-alanine into DNA, RNA, protein, or cell wall (peptidoglycan), respectively.
The incorporation of radiolabeled precursors—[methyl-^3H]-thymidine, [5-^3H]-uridine, L-[4,5-^3H]-leucine, or D-[2,3-^3H]-alanine—into DNA, RNA, protein, or peptidoglycan, respectively, in logarithmically growing S. aureus (ATCC 29213) was measured using a previously published method, with aliquots taken every 20 min over a 120-min incubation period (Wilson et al., Antimicrob. Agents Chemother. 39, 1925-33 (1995)).

T1 sequence (Q53725 1-744): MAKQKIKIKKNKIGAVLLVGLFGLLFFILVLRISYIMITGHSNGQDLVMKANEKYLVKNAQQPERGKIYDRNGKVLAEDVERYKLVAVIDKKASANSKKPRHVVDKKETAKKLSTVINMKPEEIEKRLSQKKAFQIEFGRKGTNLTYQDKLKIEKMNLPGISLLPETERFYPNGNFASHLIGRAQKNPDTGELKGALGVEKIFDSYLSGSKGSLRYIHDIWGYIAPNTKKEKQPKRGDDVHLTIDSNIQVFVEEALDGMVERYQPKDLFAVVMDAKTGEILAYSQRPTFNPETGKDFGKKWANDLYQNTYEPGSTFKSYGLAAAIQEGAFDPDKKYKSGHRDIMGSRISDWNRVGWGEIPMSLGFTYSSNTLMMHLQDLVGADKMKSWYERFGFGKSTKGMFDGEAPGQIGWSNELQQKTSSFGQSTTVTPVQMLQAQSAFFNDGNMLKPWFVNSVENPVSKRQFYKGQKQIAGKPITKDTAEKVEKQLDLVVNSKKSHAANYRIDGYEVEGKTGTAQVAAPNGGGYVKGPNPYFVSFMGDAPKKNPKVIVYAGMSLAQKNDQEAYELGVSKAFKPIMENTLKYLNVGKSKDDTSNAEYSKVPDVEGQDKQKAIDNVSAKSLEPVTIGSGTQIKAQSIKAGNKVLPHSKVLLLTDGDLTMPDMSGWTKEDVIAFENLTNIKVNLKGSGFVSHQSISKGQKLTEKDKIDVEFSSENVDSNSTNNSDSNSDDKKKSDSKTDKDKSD

For N#Cc1ccc(/C=C/c2nc3ccccc3c(=O)n2-c2cccc(C(=O)O)c2)cc1.[Na] [Compound 2, Sodium (E)-3-(3-carboxyphenyl)-2-(4-cyanostyryl)quinazolin-4(3H)-one], the MIC (S. aureus NRS123; NRS123) was 2 µg/mL, the MIC (S. aureus NRS123; NRS123, read-out: MIC NRS123) was 4 µg/mL and the “Hemolysis of red blood cells” value (red blood cells) was < 1%. For the same compound, the Plasma protein binding [1] was 96.5±0.70%, the In vitro AB activity (MIC) (S. aureus NRS128) was 4 µg/mL and the “Inhibition of in vitro transcription” value (T7 transcription) was “did not show any inhibition”. For the same compound, the half-life at 20 μM (Plasma stability) was 141 h, the IC50 (PBP1) was 187 µM and the “Effect on replication, transcription, or translation” value (S. aureus (ATCC 29213)) was “did not significantly affect”. The “Inhibition of cell-wall (peptidoglycan) biosynthesis” value (S. aureus (ATCC 29213)) was 51±12%.
